Assay results reported in patent USRE44543E1, “Naphthalenic compounds as termite bait toxicants” (priority 2002, dated 2013).

Experiments:
Reticulitermes spp. = assay: Field evaluation of bait matrix-NHA in underground Exterra bait stations, Past Christian, Mississippi; assay type: in vivo, Reticulitermes flavipes
Experimental: Underground Exterra bait stations (Ensystex, Fayetteville, N.C.) were placed according to manufacturer directions around 20 houses in a heavily Reticulitermes spp. infested neighborhood surrounded by mainly pine forest in Past Christian, Miss. The stations were placed, approximately 20 feet apart and 5 feet away from the outside wall of the house. Monthly inspections were conducted to determine termite activity. Once termites were found in the station, 150 g of the ARS bait matrix (see Example 2) containing 250 ppm NHA was placed in the station for the first year of the experiment. The dose was increased in the second year to 500 ppm because of the constant movement of termites from the forest area to the stations. The bait matrix-NHA was prepared as above and exposed to the termites contained in the Exterra bait station, consecutively monthly inspections were conducted and bait matrix-NHA was added as required. Data on bait consumption, temperature of the soil and time to kill the colony was recorded. Reticulitermes flavipes were very abundant in the study site. The distribution of the infestation was in patches. For the typical infested house, termites were found in 3 of 6 stations. For this type of environmental setting, 600 g of bait matrix which is equivalent to 240 mg of NHA was required to kill the colony. It took about 9 months (from September-May) for the bait matrix to show its effectiveness which was evaluated by the presence of dead termites on the surface of the bait matrix container and interceptors.

C. formosanus = assay: ARS bait matrix bioassay with NHA sodium salt, protocol of Example 1 (Example 2); assay type: in vivo, Coptotermes formosanus; details: concentrations greater than 500 and up to 1500 ppm; also effective
Experimental: For bait matrices with a final concentrations of NHA sodium salt of either 250 ppm or 500 ppm, the following procedure was used. A total of 25 mg or 50 mg, respectively of the NHA sodium salt was weighed using a Mettler balance. The NHA sodium salt complex was placed into a 50 ml sterile screw cap conical tube (#62.547.004; Sarstedt, Newton, N.C.) and dissolved with 40 ml nutritive solution described in Example 2 of U.S. patent application Ser. No. 09/294,499 filed Apr. 20, 1999, hereby incorporated by reference. Under a laminar flow hood, this product was mixed with 27 ml more of sterile nutritional supplement in a 250 ml sterile glass bottle (prepared as reported by M. G. Rojas and J. A. Morales-Ramos, April 2001, “Bait matrix for delivery of chitin synthesis inhibitors to the Formosan subterranean termite [Isoptera: Rhinotermitidae],” J. Econ. Entomol. 94(2) :506-510) hereby incorporated by reference. The bottle was tightly closed with a screw cap and manually shaken for 2 minutes. The mixture was added to 33 g of sterile cellulose as reported by Rojas and Morales-Ramos (2001) supra. The mixture was manually homogenized using a stainless steel spatula. To encase the bait matrix, tubes made of fibrous casing material (#124B; L.E.M. Products, Inc., Miamitown, Ohio) were cut into 150 mm long portions as reported by Rojas and Morales-Ramos (2001) supra. Fifty grams of bait matrix containing NHA sodium salt was compacted into one end of the inlet tube, and the open end and of the inlet tube was closed with a rubber band. The bait casing was placed inside of the foraging box adjacent to a 10 g piece of pine wood, taking care that it was partially covered with sand. Control bait matrix was prepared minus NHA, and presented in the same way as the treatment matrix to Formosan termites taken from three different colonies, with two boxes per locality totaling six boxes of 2500 termites per treatment. (Rojas and Morales-Ramos [2001] supra). All the experimental boxes were maintained under dark conditions at 27±1° C., and 90±2% relative humidity. Observations were done every 72 hours until all the termites died. The time to reach 100% mortality was measured and recorded. Mean comparisons among treatments and control were conducted.
N-hydroxynaphthyalimide (NHA) which is commercially available as pure chemical, is dissolved in distilled water using a sterile container; At concentrations of 500 ppm, NHA is effective as bait active ingredient taking a mean time to kill C. formosanus in 2½ months in lab conditions. […]

[1] = date 01/29 (17th of 18, second winter)
[2] = date 02/26 (18th of 18, second winter)
[3] = typical infested house, termites in 3 of 6 stations

SMILES: O=C1c2cccc3cccc(c23)C(=O)N1O [NHA, N-hydroxynaphthalimide]
- time for the bait matrix to show its effectiveness (dead termites on bait container and interceptors) (Reticulitermes spp.; September-May): about 9 months
- Active Stations Number (Reticulitermes spp.; date 01/29 (5th of 18)): 6
- Active Stations Percentage (Reticulitermes spp.; date 01/29 (5th of 18)): 24.0%
- Bait (Cum. weight in g) Consumed (Reticulitermes spp.; date 01/29 (5th of 18)): 1,500 g
- Active Stations Number (Reticulitermes spp.; [1]): 11
- Active Stations Percentage (Reticulitermes spp.; [1]): 24.4%
- Bait (Cum. weight in g) Consumed (Reticulitermes spp.; [1]): 11,850 g
- Active Stations Number (Reticulitermes spp.; date 02/26 (6th of 18)): 12
- Active Stations Percentage (Reticulitermes spp.; date 02/26 (6th of 18)): 50.0%
- Bait (Cum. weight in g) Consumed (Reticulitermes spp.; date 02/26 (6th of 18)): 1,500 g
- Active Stations Number (Reticulitermes spp.; [2]): 15
- Active Stations Percentage (Reticulitermes spp.; [2]): 33.3%
- Bait (Cum. weight in g) Consumed (Reticulitermes spp.; [2]): 12,600 g
- Active Stations Number (Reticulitermes spp.; date 03/27 (7th of 18)): 13
- Active Stations Percentage (Reticulitermes spp.; date 03/27 (7th of 18)): 56.5%
- Bait (Cum. weight in g) Consumed (Reticulitermes spp.; date 03/27 (7th of 18)): 1,500 g
- Active Stations Number (Reticulitermes spp.; date 05/01 (8th of 18)): 16
- Active Stations Percentage (Reticulitermes spp.; date 05/01 (8th of 18)): 55.2%
- Bait (Cum. weight in g) Consumed (Reticulitermes spp.; date 05/01 (8th of 18)): 3,150 g
- Active Stations Number (Reticulitermes spp.; date 05/29 (9th of 18)): 11
- Active Stations Percentage (Reticulitermes spp.; date 05/29 (9th of 18)): 36.7%
- Bait (Cum. weight in g) Consumed (Reticulitermes spp.; date 05/29 (9th of 18)): 3,750 g
- Active Stations Number (Reticulitermes spp.; date 06/26 (10th of 18)): 16
- Active Stations Percentage (Reticulitermes spp.; date 06/26 (10th of 18)): 50.0%
- Bait (Cum. weight in g) Consumed (Reticulitermes spp.; date 06/26 (10th of 18)): 4,800 g
- Active Stations Number (Reticulitermes spp.; date 07/31 (11th of 18)): 12
- Active Stations Percentage (Reticulitermes spp.; date 07/31 (11th of 18)): 33.3%
- Bait (Cum. weight in g) Consumed (Reticulitermes spp.; date 07/31 (11th of 18)): 6,000 g
- Active Stations Number (Reticulitermes spp.; date 08/28 (12th of 18)): 17
- Active Stations Percentage (Reticulitermes spp.; date 08/28 (12th of 18)): 47.2%
- Bait (Cum. weight in g) Consumed (Reticulitermes spp.; date 08/28 (12th of 18)): 7,200 g
- Active Stations Number (Reticulitermes spp.; date 09/25 (13th of 18)): 21
- Active Stations Percentage (Reticulitermes spp.; date 09/25 (13th of 18)): 52.5%
- Bait (Cum. weight in g) Consumed (Reticulitermes spp.; date 09/25 (13th of 18)): 7,950 g
- Active Stations Number (Reticulitermes spp.; date 09/26 (1st of 18), NHA 250 ppm first year, 500 ppm second year): 22
- Bait (Cum. weight in g) Consumed (Reticulitermes spp.; date 09/26 (1st of 18), from fully consumed bait bags): 0.0 g
- Active Stations Percentage (Reticulitermes spp.; date 09/26 (1st of 18), of cumulative stations ever active): 95.7%
- Active Stations Number (Reticulitermes spp.; date 10/27 (2nd of 18)): 10
- Active Stations Percentage (Reticulitermes spp.; date 10/27 (2nd of 18)): 43.5%
- Bait (Cum. weight in g) Consumed (Reticulitermes spp.; date 10/27 (2nd of 18)): 600 g
- Active Stations Number (Reticulitermes spp.; date 11/02 (14th of 18)): 18
- Active Stations Percentage (Reticulitermes spp.; date 11/02 (14th of 18)): 42.9%
- Bait (Cum. weight in g) Consumed (Reticulitermes spp.; date 11/02 (14th of 18)): 10,800 g
- Active Stations Number (Reticulitermes spp.; date 11/20 (3rd of 18)): 10
- Active Stations Percentage (Reticulitermes spp.; date 11/20 (3rd of 18)): 41.7%
- Bait (Cum. weight in g) Consumed (Reticulitermes spp.; date 11/20 (3rd of 18)): 1,200 g
- Active Stations Number (Reticulitermes spp.; date 11/27 (15th of 18)): 13
- Active Stations Percentage (Reticulitermes spp.; date 11/27 (15th of 18)): 28.9%
- Bait (Cum. weight in g) Consumed (Reticulitermes spp.; date 11/27 (15th of 18)): 11,250 g
- Active Stations Number (Reticulitermes spp.; date 12/18 (4th of 18)): 8
- Active Stations Percentage (Reticulitermes spp.; date 12/18 (4th of 18)): 33.3%
- Bait (Cum. weight in g) Consumed (Reticulitermes spp.; date 12/18 (4th of 18)): 1,500 g
- Active Stations Number (Reticulitermes spp.; date 12/29 (16th of 18)): 13
- Active Stations Percentage (Reticulitermes spp.; date 12/29 (16th of 18)): 28.9%
- Bait (Cum. weight in g) Consumed (Reticulitermes spp.; date 12/29 (16th of 18)): 11,850 g
- NHA required to kill the colony (equivalent of bait matrix) (Reticulitermes spp.; [3]): 240 mg
- bait matrix required to kill the colony (Reticulitermes spp.; [3]): 600 g
- mean killing times versus 500 ppm (C. formosanus): not significantly different
